In US12421245B2, “Pharmaceutically acceptable acid salt of free base of GLP1 receptor agonist, and preparation method therefor” (Hangzhou Zhongmei Huadong Pharmaceutical Co., Ltd., priority 2020, dated 2025):
Structures can show the parent of a compound that is named as a salt.

What was measured:
Type in all cases: physicochemical
[1] = Assessment of pH solubility of crystalline salts in buffers
Protocol: 1) Assessment of pH Solubility The solubility of crystal form B of hydrochloride, crystal form C of p-toluenesulfonate, crystal form C of sulfate, and crystal form C of hydrobromide under different pH conditions were determined and compared, and the results were shown in Table 8. All the crystalline salts had low solubility in buffers of pH 3.0 and 5.0.

[2] = Hygroscopicity, dynamic moisture adsorption (DVS) test; conditions: for Moisture adsorption rate: DVS, 25° C., 80% RH; for Change of crystal form, yes/no: before and after the DVS test
Protocol: 5. Dynamic moisture adsorption (DVS):
Dynamic moisture adsorption (DVS) curves were collected on DVS Intrinsic of Surface Measurement Systems (SMS). The relative humidity at 25° C. was corrected with the deliquescent points of LiCl, Mg (NO3) 2 and KCl.
Five crystalline salts were subject to DVS test (25° C., 80% RH).

[3] = Assessment of solid stability (XRPD and HPLC after storage); conditions: for Change of crystal form, yes/no: XRPD after 40° C./100% RH/7 d; for HPLC (area %) 40° C./100% RH/7 d: after 40° C./100% RH for 1 week; for HPLC (area %) Initiation: initial, before storage; for Stability relative to OAD2 dihydrochloride (in words): summary statement
Protocol: The stability of crystal form B of hydrochloride, crystal form C of sulfate, crystal form C of p-toluenesulfonate and compound I was compared. After placement under a 40° C./100% RH condition for 1 week, physical and chemical stability was assessed by means of XRPD and HPLC, respectively, and the results were shown in Table 10.

SMILES	Solubility compared with other crystalline salts (in words) ([1]; buffer of pH 1.0)	Solubility ([1]; pH 1.0)	Solubility ([1]; pH 2.0)	Solubility ([1]; pH 3.0)	Solubility ([1]; pH 5.0)	Solubility ([1]; pH 7.0)	Moisture adsorption rate [2]	Change of crystal form, yes/no [2]	Solid stability (in words) ([3]; 40° C./100% RH, 1 week)	Change of crystal form, yes/no [3]	HPLC (area %) 40° C./100% RH/7 d [3]	HPLC (area %) Initiation [3]	Stability relative to OAD2 dihydrochloride (in words) [3]	Moisture adsorption rate ([2]; dihydrochloride)
CC[C@@H](c1ccccc1)N1Cc2cc3c(cc2C[C@H]1C(=O)N[C@@H](Cc1ccc(-c2ccnc(C)c2C)cc1)C(=O)O)OC[C@H](c1ccc(OCc2ccc(Cl)c(Cl)c2)cc1)O3 [Crystal form C of p-toluenesulfonate, (S)-2-(3S,8S)-3-(4-(3,4-dichlorobenzyloxy)phenyl-7-((S)-1-phenylpropyl)-2,3,6,7,8,9-hexahydro-[1,4]-dioxino[2,3-g]isoquinolin-8-ylformylamino)-3-(4-(2,3-dimethylpyridin-4-yl)phenyl)propionic acid]	significantly higher solubility than other crystalline salts	1.423 mg/mL	0.118 mg/mL	0.001 mg/mL	0.001 mg/mL	0.093 mg/mL	0.6%	No	the best stability	No	98.87 area %	98.85 area %	superior stability relative to OAD2 dihydrochloride	–
CC[C@@H](c1ccccc1)N1Cc2cc3c(cc2C[C@H]1C(=O)N[C@@H](Cc1ccc(-c2ccnc(C)c2C)cc1)C(=O)O)OC[C@H](c1ccc(OCc2ccc(Cl)c(Cl)c2)cc1)O3 [Crystal form C of sulfate, (S)-2-(3S,8S)-3-(4-(3,4-dichlorobenzyloxy)phenyl-7-((S)-1-phenylpropyl)-2,3,6,7,8,9-hexahydro-[1,4]-dioxino[2,3-g]isoquinolin-8-ylformylamino)-3-(4-(2,3-dimethylpyridin-4-yl)phenyl)propionic acid]	–	0.811 mg/mL	0.074 mg/mL	0.001 mg/mL	0.001 mg/mL	0.096 mg/mL	3.2%	No	–	No	98.78 area %	98.85 area %	superior stability relative to OAD2 dihydrochloride	–
CC[C@@H](c1ccccc1)N1Cc2cc3c(cc2C[C@H]1C(=O)N[C@@H](Cc1ccc(-c2ccnc(C)c2C)cc1)C(=O)O)OC[C@H](c1ccc(OCc2ccc(Cl)c(Cl)c2)cc1)O3 [Crystal form C of hydrobromide, (S)-2-(3S,8S)-3-(4-(3,4-dichlorobenzyloxy)phenyl-7-((S)-1-phenylpropyl)-2,3,6,7,8,9-hexahydro-[1,4]-dioxino[2,3-g]isoquinolin-8-ylformylamino)-3-(4-(2,3-dimethylpyridin-4-yl)phenyl)propionic acid]	–	0.496 mg/mL	0.016 mg/mL	0.001 mg/mL	0.004 mg/mL	0.039 mg/mL	1.4%	No	–	–	–	–	–	–
CC[C@@H](c1ccccc1)N1Cc2cc3c(cc2C[C@H]1C(=O)N[C@@H](Cc1ccc(-c2ccnc(C)c2C)cc1)C(=O)O)OC[C@H](c1ccc(OCc2ccc(Cl)c(Cl)c2)cc1)O3 [OAD2 dihydrochloride, (S)-2-(3S,8S)-3-(4-(3,4-dichlorobenzyloxy)phenyl-7-((S)-1-phenylpropyl)-2,3,6,7,8,9-hexahydro-[1,4]-dioxino[2,3-g]isoquinolin-8-ylformylamino)-3-(4-(2,3-dimethylpyridin-4-yl)phenyl)propionic acid dihydrochloride, reference compound]	–	–	–	–	–	–	–	–	–	–	–	–	–	8.3%
CC[C@@H](c1ccccc1)N1Cc2cc3c(cc2C[C@H]1C(=O)N[C@@H](Cc1ccc(-c2ccnc(C)c2C)cc1)C(=O)O)OC[C@H](c1ccc(OCc2ccc(Cl)c(Cl)c2)cc1)O3 [Crystal form B of hydrochloride, (S)-2-(3S,8S)-3-(4-(3,4-dichlorobenzyloxy)phenyl-7-((S)-1-phenylpropyl)-2,3,6,7,8,9-hexahydro-[1,4]-dioxino[2,3-g]isoquinolin-8-ylformylamino)-3-(4-(2,3-dimethylpyridin-4-yl)phenyl)propionic acid]	–	0.381 mg/mL	0.017 mg/mL	0.002 mg/mL	0.001 mg/mL	0.109 mg/mL	0.8%	No	–	No	98.18 area %	98.37 area %	superior stability relative to OAD2 dihydrochloride	–
